One block for each molecule: values may come before it.
What was measured:
Assay type in all cases: cell-based
[1] = tested on: cholesterol metabolism processes/pathways; assay: Percentile of treatment anti-aging effect on Gene Ontology processes/pathways (FIG. 6); details: for effect on the cholesterol metabolism processes/pathways: processes/pathways 100a-h, associated with fibroblasts
Text: (§1) In general, the method computes a distance between two vectors (i.e., a vector distance), and determines the statistical significance of the vector distance to assess the effect of a treatment on a particular biological pathway. The first of the two vectors is a set of expression changes representing the treatment effect of an ingredient on genes in the biological pathway, and includes one value for each of the genes in the biological pathway. The second of the vectors is a set of expression changes representing the effect of the condition on the genes of the biological pathway. By comparing the vector distance between the two vectors against an empirical distribution of vector distances, the significance of the effect of the treatment on the biological pathway can be determined. The genes corresponding to each biological pathway/process and represented in each of the vectors are specified by Gene Ontology, KEGG pathway, WikiPathway, and/or any other known source.
Specific methods and calculations will now be described using the examples above in which the target treatment is Pal-KTTKS (and others) and the target condition is aging of skin cells. Throughout, UV-mediated aging may also be referred to as “photo-aging,” and cells subject to photo-aging may be referred to as “UV-exposed skin cells” or “skin cells exposed to UV radiation.” Similarly, non-UV-mediated aging may also be referred to as “intrinsic aging,” and cells subject to intrinsic aging may be referred to as “non-UV-exposed skin cells.” The treatment effect—in this case the anti-aging effect—of a specified ingredient (e.g., Pal-KTTKS) is measured by the vector distance (e.g., cosine distance) between two vectors of expression changes (e.g., log 2 fold expression changes) of genes in a target biological process. […]
(§2) While the vector distance for a treatment and a target biological pathway is indicative of the effect of the treatment on the target biological pathway, the vector distance by itself is not indicative of the significance of the effect relative to other effects on other biological pathways. The statistical significance of a particular vector distance may be extrapolated from an empirical distribution of vector distances calculated using reference genomics data such as connectivity map (CMap) genomics data. […]
Using the distributions, a percentile may be calculated for the vector distance between the clinical and treatment vectors. Specifically, the percentile among the extreme region of the distribution for the i-th target biological process is calculated according to […]

[2] = tested on: ATPase regulation processes/pathways; assay: Percentile of treatment anti-aging effect on Gene Ontology processes/pathways (FIG. 7)
Text: as §1, with “The genes corresponding to each biological pathway/process and represented in each of the vectors are specified by Gene Ontology, KEGG pathway, WikiPathway, and/or any other known source.” left out
as §2

[3] = tested on: innate and adaptive immunity processes/pathways; assay: Percentile of treatment anti-aging effect on Gene Ontology processes/pathways (FIG. 8)
Text: as §1, with “The genes corresponding to each biological pathway/process and represented in each of the vectors are specified by Gene Ontology, KEGG pathway, WikiPathway, and/or any other known source.” left out
as §2

[4] = tested on: cholesterol biosynthesis pathway; assay: Vector (cosine) distance between treatment and clinical aging gene expression vectors, with percentile in the reference genomics distribution (FIG. 4)
Text: as §1
In the case of a study of the effects of a particular agent, Pal-KTTKS (e.g., at 3 ppm concentrations), on aging of skin cells, for example, a particular biological process may be targeted. For each of the genes in the target biological process, the expression changes (e.g., log 2 fold changes) between old and young cells may be calculated for cells exposed to ultraviolet (UV) radiation (e.g., cells taken from the arms), for cells not exposed to UV radiation (e.g., cells taken from the buttocks), or for both. That is, the condition genomics data 34 may be compared to the control genomics data 33 to determine the expression change for each of the genes in the target biological process. The expression changes between treated and untreated cells may also be calculated for each of the genes in the target biological process, which in some implementations may include comparing the control genomics data 33 to the treatment genomics data 32. Each set of expression changes (where each set comprises an expression change for each of the genes in the target biological process) forms a corresponding vector, and the vector for the treatment effect (also referred to hereafter as the “treatment vector”) is compared to the vector for the reference effect (e.g., the vector for old/young cells), which is also referred to herein as a “clinical vector,” by taking the distance (e.g., cosine distance) between the vectors.
Specific methods and calculations will now be described using the examples above in which the target treatment is Pal-KTTKS (and others) and the target condition is aging of skin cells. Throughout, UV-mediated aging may also be referred to as “photo-aging,” and cells subject to photo-aging may be referred to as “UV-exposed skin cells” or “skin cells exposed to UV radiation.” Similarly, non-UV-mediated aging may also be referred to as “intrinsic aging,” and cells subject to intrinsic aging may be referred to as “non-UV-exposed skin cells.” The treatment effect—in this case the anti-aging effect—of a specified ingredient (e.g., Pal-KTTKS) is measured by the vector distance (e.g., cosine distance) between two vectors of expression changes (e.g., log 2 fold expression changes) of genes in a target biological process. One of the vectors compares treatment genomics data for the genes with control genomics data for the genes to represent the treatment effects on the genes (i.e., a “treatment effect vector” or “treatment vector” of the ingredient). […]

effect on the ATPase regulation processes/pathways overall [2]: almost no effect
Molecule: NC(=O)c1cccnc1 [Niacinamide]
percentile for steroid metabolic process (100b) ([1]; columns D and E, only single process below exemplary threshold): < 5% | effect on the cholesterol metabolism processes/pathways ([1]; FIG. 6): likely does not strongly affect | effect on the set 140 of innate and adaptive immunity pathways [3]: strong effect | percentile values for innate and adaptive immunity processes/pathways ([3]; many of the percentile values, example threshold): < 5%

effect on the ATPase regulation processes/pathways overall [2]: almost no effect
Molecule: Pal-KTTKS
calculated percentile of vector distance in distribution from fibroblast reference genomics data, UV-mediated aging ([4]; 3 ppm on fibroblast cells, UV-exposed cells): 0.36 | cosine distance with the photo aging vector ([4]; 3 ppm on fibroblast cells, UV-exposed cells clinical vector, cholesterol biosynthesis pathway): −0.640 | calculated percentile of vector distance in distribution from fibroblast reference genomics data, intrinsic aging ([4]; 3 ppm on fibroblast cells, non-UV-exposed cells): 0.22 | cosine distance with the intrinsic aging vector ([4]; 3 ppm on fibroblast cells, non-UV-exposed cells clinical vector, cholesterol biosynthesis pathway): −0.720 | anti-aging benefit on the cholesterol synthesis pathway ([4]; both intrinsic and UV-mediated aging): strong anti-aging benefit | percentile values for each of the biological processes/pathways 100a-h ([1]; cholesterol metabolism set, FIG. 6): very low percentile values | effect on the cholesterol metabolism processes/pathways ([1]; FIG. 6): very strong effect
